Data reported in US12667571B2, “Uridine phosphorylase (UPase) inhibitors for treatment of liver conditions” (Tosk, Inc., priority 2019, dated 2026).
“Also recorded” adds a separate entry of the source.

Legend:
[1] = test system: plasma UR; assay: Plasma UR concentration versus plasma Compound 1 concentration after continuous sc osmotic-pump infusion; format: in vivo; details: BDF-1 male mice, result in words
Protocol: For this reason continuous infusion of compound I (authentic TK-112690, Batch TCY90108) to BDF-1 ♂ mice were administered via a sc implanted osmotic pumps and the UR plasma concentration measured, ^46 Deng Y, Wang Z V, Gordillo R, An Y, Zhang C, Liang Q, Yoshino J, Cautivo K M, De Brabander J, Elrnquist J K, Horton J D, Hill J A, Klein S, Scherer P E. An adipo-biliary-uridine axis that regulates energy homeostasis. Science 2017, 17; 355(6330)
Solutions of Compound I were prepared at a concentration of 500 mg/mL in sterile PBS. Osmotic pumps (ALZET® micro-osmotic pump 2001 D and 1003D, Alza Co) were loaded with 200 μL (2001D osmotic pump) and/or 100 μL (1003D osmotic pump) of TK-112690 solution.
BDF-1 male mice (n=6) were treated with a constant-rate infusion of 667, 833 or 3000 mg/kg/day doses of Compound I delivered via subcutaneously implanted osmotic pumps. Animals were anesthetized with 100 mg/kg ketamine prior to pump implantation. Surgical scissors were used to make an approximately 1 cm incision on the dorsal surface near the shoulder blade of animals. A hemostat was used to carve out a subcutaneous tunnel toward the anterior end of animal. Osmotic pumps were placed inside the subcutaneous tunnel. […]
A solid-phase extraction (SPE) of analytes (UR, Compound I and 5-FU) from plasma was conducted before HPLC analysis. […] Samples were transferred into fresh HPLC vials and analyzed. […]

[2] = Elimination t1/2 of Compound 1 in mice; details: mouse, in vivo
[3] = test system: C57BL/6 mice fed an MCD diet; assay: Methionine-choline deficient diet (MCD) model of NASH; format: in vivo; details: H&E liver sections, end of MCD study; ip bid 28 days; FIG. 4
[4] = test system: C57BL/6 mice fed an MCD diet; assay: as above; format: in vivo; details: end of MCD study; ip bid 28 days
Protocol: Mice fed an MCD diet is a standard model of diet induced NASH.^47,48 All animals were housed in ventilated standard housing cages throughout the experimental phase. Tap water was provided ad libitum to all animals. Male, 8-week old, C57BL/6 mice from Charles River were acclimated for 3 days maintained on a standard chow diet and group housed in hepa-filtered cages (5 animals per cage) on a normal 12 hours light cycle (at 8 am to 8 pm lights off). The temperature and humidity were 22±2° C. and 50±10%, respectively. Cages litters were changed once a week. ^47 Reid D T, Reyes J L, McDonald B A, Vo T, Reimer R A, Eksteen B. Kupffer Cells Undergo Fundamental Changes during the Development of Experimental NASH and Are Critical in Initiating Liver Damage and Inflammation. PLoS One. 2016, 25; 11:e0159524.^48 Ramadori P, Weiskirchen R, Trebicka J, Streetz K. Mouse models of metabolic liver injury. Lab Anim. 2015; 49(1 Suppl):47-58.
Following acclimation, the animals were randomized into homogenous treatment groups according to their body weight, and fed ad libitum a diet deficient in methionine and choline: 4.2 kcal/g; MP Biomedicals, Solon, OH). Food and water intake were measured 3 times per week (at the same time as body weight measurements). After the acclimation period, the 24 mice (n=6/treatment group) were weighed 3 times per week until sacrifice.
The 4 treatment group were: • Group 1: Vehicle+MCD • Group 2: MCD+200 mg/kg UR • Group 3: MCD+60 mg/kg Compound I • Group 4: MCD+60 mg/kg Compound 1 plus 200 mg/kg UR 30 minutes post Compound 1
All Compound 1 and UR doses (mg/kg in 10 mL/kg of vehicle) were ip, bid at least 8 hours apart, for 28 days. Vehicle=PBS. Vehicle, UR and Compound 1±UR will be dosed daily starting 2 days prior to placing the animals on a MCD diet. Mice were on the MCD diet for 26 days.
After 26 days on MCD, the animals were sacrificed ˜2 hours after the last dose and non-fasted glucose was measured along with a plasma lipid panel, TNF-α, ALT and AST. Total body weight was determined weekly. Total liver was weighed and the medial lobe excised, formalin fixed and stained with Oil Red O to evaluate lipid content. An intensity score for the fixed tissue slides measured by an independent histopathologist was also determined.

[5] = UR, reference 46; cited from earlier work

SMILES	effect on plasma UR level [1]	half-life [2] [h]	liver fibrosis scoring compared to vehicle treated controls [3]	ALT [4]	AST [4]	cholesterol [4]	total triglycerides [4]	elimination t1/2 [5]
Cc1cn2c(nc1=O)O[C@H]1[C@H](O)[C@@H](CO)O[C@H]12 [Compound 1]	elevate plasma UR in a linear fashion; also recorded: associated with higher levels of UR	1 to 2	statistically different	no difference	no difference	no difference	no difference	–
O=c1ccn([C@@H]2O[C@H](CO)[C@@H](O)[C@H]2O)c(=O)[nH]1 [UR, uridine]	–	–	statistically different	no difference	no difference	no difference	no difference	only a few minutes
